Data on one substance can be found in patent publication US5670479A, “α-ketoamide derivatives as inhibitors of thrombosis” (Corvas International, Inc., priority 1994, dated 1997).

The subject of series [1] is washed human platelets. As to the kind of experiment: Thrombin-induced aggregation in washed human platelets. Format: cell-based. The procedure: Washed human platelets were prepared from freshly isolated venous blood obtained from normal, healthy volunteers who had not taken any medication which might affect platelet function, according to the procedure of Connolly, T. M. et al., J. Biol. Chem., 267: 6893. (1992). Inhibitors, were added in a volume of […] to […] of prewarmed washed platelets in a siliconized glass cuvette (Chronolog Corp., Hayertown, Pa.) followed by […] of 0.25M CaCl2. The rate and extent of aggregation were measured for 5-15 minutes by the change in light transmission in a stirred cuvette, following the addition of […] of a-thrombin (final concentration 2 nM), using a Chronolog Whole Blood Aggregometer equipped with the Aggro/Link data acquisition system (Chronolog Corp., Hayertown, Pa.).

In series [2] the test system is baboons. Conditions: baboon, other direct antithrombins evaluated earlier in this model, cited from earlier work.
Series [3] addresses T1, a-thrombin (Homo sapiens, UniProt P00734). As to the kind of experiment: Inhibition of fluid-phase thrombin (FPA generation in citrated plasma). Further details: Purified human a-thrombin; purchased Enzyme Research Laboratories, Inc. Conditions: 60 min, 37° C., compound 8 18.75 nM, Hirulog-1 500 nM, rHIR 4 nM, FIG. 5A. Format: biochemical. The protocol:
I. et.al. J. Clin. Invest., 86: 385-391 (1990). Human a-thrombin (2 U/ml) was incubated with citrated plasma for 60 minutes at 37° C. in the absence or presence of varying concentrations of each of the inhibitors. At timed intervals, 100 μl aliquots were removed and the reaction was terminated by the addition of […] (5 μM, final concentration). Unreacted fibrinogen was then precipitated with ethanol, and the ethanol supernatants were assayed for fibrinopeptide A (FPA). Thrombin addition to plasma results in rapid FPA generation which reaches a plateau in minutes as the thrombin is complexed and inactivated by fluid-phase antiproteases.(e.g. antithrombin III).

For series [4], the system named is Male Harlan Sprague Dawley rats. As to the kind of experiment: Rat model of FeCl3-induced platelet-dependent arterial thrombosis. Format: in vivo. The source says: Kurz, K. D., Main, B. W., and Sandusky, G. E., Thromb. Res., 60: 269-280. (1990). In this model a platelet-rich, occlusive thrombus is formed in a segment of the rat carotid artery treated with a fresh solution of FeCl3 absorbed to a piece of filter paper. The FeCl3 is thought to diffuse into the treated segment of artery and causes de-endothelialization resulting in thrombus formation. The effect of a test compound on the incidence of occlusive thrombus formation following the application of the FeCl3 is monitored by ultrasonic flowtometry and is used as the primary end point. The use of flowtometry is a modification of the original procedure in which thermal detection of clot formation was employed. Kurz, K. D., Main, B. W., and Sandusky, G. E., Thromb. Res., 60: 269-280 (1990).
Male Harlan Sprague Dawley rats (420-450 g) were acclimated at least 72 hours prior to use and fasted for 12 hours prior to surgery with free access to water. The animals were prepared, anesthetized with Nembutal with catheters for blood pressure monitoring, drug and anesthesia delivery being implanted as described above. The left carotid artery was exposed and isolated by making a midline cervical incision followed by blunt dissection and spreading techniques to separate a 2 cm segment of the vessel from the carotid sheath. A silk suture is inserted under the proximal and distal ends of the isolated vessel to provide clearance for the placement of a ultrasonic flow probe (Transonic) around the proximal end of the vessel. The probe is then secured with a stationary arm.
The test compounds were administered as described above after placement of the flow probe and stabilization of the preparation for a period of 60 minutes prior to the thrombogenic stimulus. At t=0, a 3 mm diameter piece of filter paper (Whatman #3) soaked with […] of a 35% solution of fresh FeCl3 (in water) was applied the segment of isolated carotid artery distal to the flow probe. Blood pressure, blood flow, heart rate, and respiration were monitored for 60 minutes.
The incidence of occlusion (defined as the attainment of zero blood flow) was recorded as the primary end point. Following the 60 minute observation period the flow probe was removed and the area cleared of all excess fluid. The distal and proximal sutures were tied off and arterial clamps placed on the far proximal and distal ends of the segment. The isolated segment was cut out, blotted dry on filter paper and weighed. The segment was re-weighed following removal of the clot and the difference recorded as total % clot (see above). Weights were recorded on only those segments which had detectable thrombus. Following the procedure the animals were euthanized as described above.

Series [5] addresses T1, a-thrombin. The series is described as follows: Thrombin-induced clotting of purified fibrinogen. The format is biochemical. Conditions: preincubation with a-thrombin 0, 30, 60 minutes before fibrinogen. The protocol: The clotting time of fibrinogen following the addition of the thrombin/inhibitor complex was measured optically using the Coag-A-Mate XC automated coagulometer (General Diagnostics, Organon Technica, Oklahoma City, Okla.).
This inhibition is reflected as an increase in the relative clotting time which is the ratio of the […]. The control clotting time in this assay is 16.2±0.78 sec.

Where [6] appears, read: Group 4: 0.1 mg/kg i.v. bolus + 40 mg/kg/min i.v. infusion.

The term IC50 denotes the point on the concentration scale where inhibition reaches its midpoint. Read a low IC50 as inhibition by little substance. With “(D-Phe)-Pro-Arg-Pro-(Gly)4 -Asn-Gly-Asp-Phe-Glu-Glu-Ile-Pro-Glu-Glu-Tyr-Leu-OH [Hirulog-1]”, the “persistence of inhibition of aggregation over the 15 minute assay” value in series [1] (20 nM (compound 8), same or higher concentrations (Hirulog-1), FIG. 4) is listed as “did not cause sustained inhibition”. In series [1] (a-thrombin 2 nM, extent of aggregation over 1 minute, mean ± SD of three), this substance came in with an IC50 of 16 ± 3 nM. Also, the “Antihemostatic Effects APTT” value in series [2] (control 32 sec) is > 300 s. The “Antihemostatic Effects Bleeding Time” value in series [2] (control 4 min) is reported as 21 min. Moreover, in series [3], the “inhibition of fluid-phase a-thrombin-mediated FPA generation” value is given as “only transient inhibition”. In addition, the “Incidence of Occlusion” value is recorded as 3/3 in series [4] (Group 1: 0.1 mg/kg i.v. bolus + 5 mg/kg/min i.v. infusion), 5/6 in series [4] (Group 2: 0.1 mg/kg i.v. bolus + 10 mg/kg/min i.v. infusion), 5/6 in series [4] (Group 3: 0.1 mg/kg i.v. bolus + 20 mg/kg/min i.v. infusion) and 0/6 in series [4] (setting [6]). In addition, the “% Clot” value is given as 70.1 ± 5.5% in series [4] (Group 1: 0.1 mg/kg i.v. bolus + 5 mg/kg/min i.v. infusion, mean ± S.E.M., segments with detectable thrombus); 59.42 ± 4.34% in series [4] (Group 2: 0.1 mg/kg i.v. bolus + 10 mg/kg/min i.v. infusion, mean ± S.E.M., segments with detectable thrombus); 45.3 ± 11.63% in series [4] (Group 3: 0.1 mg/kg i.v. bolus + 20 mg/kg/min i.v. infusion, mean ± S.E.M., segments with detectable thrombus); 0% in series [4] (setting [6]). Moreover, the “proteolytic inactivation by thrombin on preincubation” value in series [5] is reported as “sensitive to proteolytic degradation”.
